As usually defined, the IC50 is the concentration that gives 50% inhibition.

Experimental findings from US9670204B2, “Compounds and pharmaceutical compositions thereof for the treatment of inflammatory disorders” (Galapagos NV, priority 2013, dated 2017) are described below.

The subject of one assay is LPA 18:2 in human plasma. Kind of assay: Human whole blood (plasma) LPA assay. It counts as biochemical. Conditions: 2 h at 37 C, LPA 18:2 by LC-MS/MS. As to the method: Blood is collected from healthy volunteers who gave informed consent into sodium heparin tubes by venipuncture, then gently inverted several times to prevent clotting. Tubes are centrifuged at 3000 rpm for 15 min at 4° C. then plasma is stored at −80° C. Compounds are diluted in DMSO in concentration dependent manner then 0.5 μL are dispensed into 96-well plate placed in ice. Plasma is defrosted on ice then 49.5 μL of plasma are added into the well containing 0.5 μL of compound (1% DMSO final). Plates are covered with a lid in polypropylene and incubated at +37° C., 5% CO2, for 2 h under gentle shaking (except controls which are stored at −20° C.).
At the end of the incubation, controls are defrosted in ice and transferred in the incubated plates for LC-MS/MS analysis with a non GLP-validated method. For the analysis, plasma proteins from a 10 μL incubated plates are precipitated with an excess of methanol containing the internal standard, LPA 17:0. After centrifugation, the corresponding supernatant is injected on a C18 column. Analytes are eluted out of the column under isocratic conditions. An API5500 QTRAP mass spectrometer (ABSciex™) is used for the detection of LPA 18:2. No calibration curve is prepared for LPA 18:2, however relative quantities are evaluated based on the peak area.

Assay [1] deals with T1, hENPP2 (UniProtKB/SwissProt Q13822) (Homo sapiens (Human), UniProt Q13822). Nature of the assay: hENPP2 biochemical assay, LPC as substrate. To be noted: LPC (palmitoyl 16:0) as substrate. In short, it runs like this: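 Human ENPP2 in 50 mM Tris-HCl pH 8.5, 500 mM NaCl, 5 mM KCl, 10 mM CaCl2, 0.1% fatty-acid-free BSA, reacted 30 min at 37 °C with LPC 16:0 (150 µM solution added 1:1). Released choline measured via choline oxidase/peroxidase/TOOS/4-aminoantipyrine quinoneimine dye at 555 nm; IC50 reported.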

The subject of a further assay is LPA 18:2 in rat plasma. Kind of assay: Rat whole blood (plasma) LPA assay. It counts as biochemical. Conditions: 2 h at 37 C, LPA 18:2 by LC-MS/MS. In short, it runs like this:
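Heparinised rat plasma spiked with compound (1% DMSO final), incubated 2 h at 37 °C, 5% CO2 with shaking; controls kept at −20 °C. After methanol precipitation with LPA 17:0 internal standard, LPA 18:2 measured by LC-MS/MS (C18, isocratic), relative quantities from peak area without calibration.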

Assay [2] has as its target T1, hENPP2. Nature of the assay: fluorescent hENPP2 biochemical assay, FS-3 as substrate. To be noted: read-out: FS3-IC50. In short, it runs like this: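 IC50 values come from fluorescence gained as FS-3 is hydrolysed (ex 485, em 520 nm). The reaction, started by adding 0.75 μM FS-3 solution, runs 30 min at 30° C after a 30 min room-temperature preincubation of compound with enzyme. Buffer: Tris-HCl pH 8.0 with NaCl, KCl, MgCl2, CaCl2 and 0.1% BSA.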

In assay [3] the test system is TS-induced pulmonary inflammation, cells in BALF. Nature of the assay: Tobacco smoke (TS) model, lungs inflammatory cells recruitment. It counts as in vivo, female C57BL/6J mice. Conditions: days 6 to 11, TS-exposed mice. The protocol:
The aim of this experiment is to evaluate the efficacy and potency of a test compound administered p.o., once or twice daily on days 6 to 11, vs reference compounds, on pulmonary inflammation induced by 11 days of TS-exposure in female C57BL/6J mice, by assessing the effect of a test compound on the tobacco smoke induced recruitment of inflammatory cells to the lungs.
The test compounds are formulated in PEG200/0.5% methylcellulose (25/75, v/v) and are given at a dose volume of 10 mL/kg. Roflumilast and Dexamethasone are included as positive […] control, respectively. Each treatment group consists of 10 mice.
A first group of mice is subjected to daily TS-exposure for 5 consecutive days and sacrificed on the day 6, 24 h after the final TS-exposure.
A second group is exposed to air for 5 consecutive days (sham exposure) and sacrificed on the day 6, 24 h after the final air-exposure.
Compound and reference-treated groups are subjected to daily TS-exposure for 11 consecutive days and sacrificed on the day 12, 24 h after the final TS-exposure. Mice are dosed p.o. on days 6 to 11, twice daily, 1 h prior to and 6 h after each TS-exposure, with either vehicle, or the test compound at 3, 5, 10 or 30 mg/kg. Another group is dosed p.o. on days 6 to 11, once daily, 1 h prior to each TS-exposure, with either vehicle, or the test compound at 10 mg/kg.
An additional group is dosed p.o., once daily, on days 6 to 11, with roflumilast at 5 mg/kg, 1 h prior to each TS-exposure. Dexamethasone is dosed p.o., twice daily, on days 6 to 11, at 0.3 mg/kg, 1 h prior to and 6 h after each TS-exposure.
For each mouse, a BAL is performed using 0.4 mL of PBS. The lavage fluid is centrifuged, the supernatant removed and the resulting cell pellet re-suspended for total cell counts and cytospin slide preparation. […]
The lungs are dissected out and the left lobes are removed, snap-frozen and stored at −80° C. […] Cell data are presented as individual data points for each animal and the mean value calculated for each group. […]
Percentage inhibitions for the cell data are calculated using the formula below: […]

For the compound `CCc1nc2ccc(C3CCN(S(C)(=O)=O)CC3)cn2c1N(C)c1nc(-c2ccc(F)cc2)cs1` [Compound 80, N-(2-ethyl-6-(1-(methylsulfonyl)piperidin-4-yl)imidazo[1,2-a]pyridin-3-yl)-4-(4-fluorophenyl)-N-methylthiazol-2-amine], the IC50 is over 1000 nM in the assay on LPA 18:2 in human plasma, 500 to 1000 nM against hENPP2 [1], 500 to 1000 nM in the assay on LPA 18:2 in rat plasma and 0.01 to 100 nM at hENPP2 [2].
Regarding `CCc1nc2ccc(C3CCN(CC(=O)N4CC(O)C4)CC3)cn2c1N(C)c1nc(-c2ccc(F)cc2)cs1` [Compound 110, 2-(4-(2-ethyl-3-((4-(4-fluorophenyl)thiazol-2-yl)(methyl)amino)imidazo[1,2-a]pyridin-6-yl)piperidin-1-yl)-(3-hydroxyazetidin-1-yl)ethanone], the IC50 is over 1000 nM with LPA 18:2 in human plasma, 100 to 500 nM against hENPP2 [1], over 1000 nM in the assay with LPA 18:2 in rat plasma and 0.01 to 100 nM on hENPP2 [2].
For the compound `CCc1nc2c(F)cc(N3CCN(CC(=O)N4CC(O)C4)CC3)cn2c1N(C)c1nc(-c2ccc(F)cc2)c(C#N)s1` [Compound 12, 2-((2-ethyl-8-fluoro-6-(4-(2-(3-hydroxyazetidin-1-yl)-2-oxoethyl)piperazin-1-yl)imidazo[1,2-a]pyridin-3-yl)(methyl)amino)-4-(4-fluorophenyl)thiazole-5-carbonitrile], in assay [3] (10 mg/kg twice daily p.o.), the “number of cells recovered in the BALF, in particular macrophage cells, epithelial cells, and neutrophils” value is listed as “significantly inhibited”. For the same compound, the half-maximal inhibitory concentration (IC50) in the assay with LPA 18:2 in human plasma was in the range of 100 to 500 nM; against hENPP2 [1] it was 0.01 to 100 nM; in the assay on LPA 18:2 in rat plasma it was 0.01 to 100 nM; at hENPP2 [2], 0.01 to 100 nM.
As for `CCc1nc2c(C)cc(N3CCN(CC(=O)N4CC(O)C4)CC3)cn2c1N(C)c1nc(-c2ccc(F)cc2)c(C#N)s1` [Compound 2, 2-((2-ethyl-6-(4-(2-(3-hydroxyazetidin-1-yl)-2-oxoethyl)piperazin-1-yl)-8-methylimidazo[1,2-a]pyridin-3-yl)(methyl)amino)-4-(4-fluorophenyl) thiazole-5-carbonitrile], the “number of cells recovered in the BALF, in particular macrophage cells, epithelial cells, and neutrophils” value in assay [3] (3 mg/kg twice daily p.o.) and in assay [3] (10 mg/kg twice daily p.o.) was “significantly inhibited” each time. For the same compound, the figures for the IC50 in the assay with LPA 18:2 in human plasma and with LPA 18:2 in rat plasma were 100 to 500 nM and 500 to 1000 nM, respectively.
For `CCc1nc2c(F)cc(N3CCN(CC(=O)NC)CC3)cn2c1N(C)c1nc(-c2ccc(F)cc2)c(C#N)s1` [Compound 13, 2-(4-(3-((5-cyano-4-(4-fluorophenyl)thiazol-2-yl)(methyl)amino)-2-ethyl-8-fluoroimidazo[1,2-a]pyridin-6-yl)piperazin-1-yl)-N-methylacetamide], the concentration for half-maximal inhibition (IC50) with LPA 18:2 in human plasma fell in the range of 100 to 500 nM; in the assay with LPA 18:2 in rat plasma, 0.01 to 100 nM.
